# Assay results as given in PMC9238271, “The quorum sensing peptide EntF* promotes colorectal cancer metastasis in mice: a new factor in the host-microbiome interaction” (BMC Biology, 2022).
# Experiments:
# [1] = test system: E-cadherin expression in HT-29 cells; experiment: Western blot of E-cadherin expression, HT-29 cells; assay type: cell-based
# Procedure: HCT-8, HT-29, and HT-116 cells were grown in DMEM medium supplied with 10% fetal bovine serum (FBS) and 1% penicillin-streptomycin. Caco-2 cells were grown in DMEM medium supplied with 10% FBS, 1% non-essential amino acid NEAA), and 1% penicillin-streptomycin. Cells were cultured at 37 °C and 5% CO2. As cells reached confluency, they were detached using 0.25% Trypsin-EDTA.
# For Western blot analyses, HCT-8 (n = 15), HCT-116 (n = 12), Caco-2 (n = 6), and HT-29 (n = 12) cells were seeded in 6-well plates at a density of 1 × 10^6 cells/well. Twenty-four hours after seeding, all cell lines were treated with 1 μM EntF* or a placebo solution. HCT-8 cells were also tested for responsiveness to 1 μM EntF* synthetic alanine-derived analogs. For antagonist activity analysis, HCT-8 cells were treated with 1 μM Nef-M1 or 1 μM EntF*A1 alone or in combination with 500 nM EntF*. After 24 h, cells were detached from the surface and lysed in RIPA buffer (Thermo Scientific). Protein concentration was determined using the modified Lowry protein assay kit (Thermo Scientific), according to the manufacturer’s instructions. Protein samples were diluted to the same concentration (4 μg/μL) with water and diluted again 1:1 using 2x Laemmli buffer. After that, samples were boiled for 5 min at 95 °C to denature proteins and centrifuged for 5 min at 16,000g; supernatants were used for Western blot analyses. Equal amounts of total protein (20 μg/lane) were separated by SDS-PAGE on an Any kD^TM gel (Bio-Rad ) and then transferred to a PVDF membrane. Before incubation with antibodies, non-specific binding sites on the membranes were blocked using 5% skimmed milk solution (1 h). TBS buffer with 0.05% Tween 20 was used for all washing steps. Membranes were incubated overnight at 4 °C with an anti-E-cadherin primary antibody (1/1000 dilution). An HRP-conjugated anti-rabbit antibody (1/2000 dilution, 1 h incubation) was used for chemiluminescent detection. Membranes were incubated with the detection substrate for 5 min and signal detection was performed using the ChemiDoc EZ imager and Image Lab software (Bio-Rad). […]
# [2] = In vitro metabolization of EntF: formation of EntF* in colon tissue homogenate; assay type: in vitro ADME, C57BL/6 female mice
# Procedure: Krebs-Henseleit (KH) buffer (Sigma-Aldrich, Belgium) was prepared by dissolving the powdered medium in 900 mL water while stirring. Once the powder was completely dissolved, 0.3790 g CaCl2•2H2O and 2.098 g NaHCO3 were added to the solution. NaOH or HCl was used to adjust the pH to 7.4. The solution was brought to final volume (1000 mL) with ultrapure water.
# For the preparation of colon tissue homogenates for EntF in vitro metabolization study, colons were collected from two untreated C57BL/6 female mice after cervical dislocation. After cleaning and rinsing the organs with ice-cold KH buffer, colons were cut into small pieces and transferred into 15 mL tubes containing 5 mL ice-cold KH buffer. Colon tissues were homogenized for 1 min. Larger particles were allowed to sediment for about 30 min at 5 °C, and then approximately 2 mL of the middle layer of each tube was transferred into a 2 mL Eppendorf tube and stored at − 35 °C. Before use, the homogenate was diluted to a final protein concentration of 0.6 mg/mL.
# To avoid the absorption of EntF* onto plasticware and glassware, all tubes and containers were coated with a BSA-based anti-adsorption solution before use.
# Five hundred microliters of tissue homogenate were mixed with 400 μL of pre-warmed KH buffer. Then, 100 μL of KH buffer (blank) or 1 mg/mL EntF peptide solution (test) were added to the diluted homogenate and incubated at 37 °C. […] After centrifugation at 16,000g for 30 min at 5 °C, supernatants were analyzed by LC1-MS1 for EntF* quantification.
# EntF* was detected and quantified on a Waters Acquity® UPLC H-class system, connected to a Waters Xevo™ TQ-S triple quadrupole mass spectrometer with electrospray ionization (operated in positive ionization mode). Autosampler tray and column oven were kept at 10 ± 5 °C and 60 ± 5 °C, respectively. Chromatographic separation was achieved on a Waters Acquity® UPLC BEH Peptide C18 column (300 Å, 1.7 μm, 2.1 mm × 100 mm). The mobile phases consisted of 93/2/5 water/acetonitrile/DMSO (V/V/V) containing 0.1% formic acid (mobile phase A) and 2/93/5 water/acetonitrile/DMSO (V/V/V) containing 0.1% formic acid (mobile phase B), and the flow rate was set to 0.5 mL/min. A 10-μL aliquot from each sample was injected. The gradient program started with 80% of mobile phase A for 1 min, followed by a linear gradient to 40% of mobile phase A for 3.5 min. Gradient was then changed to 14.2% mobile phase A at 5 min, followed by a 1 min equilibration, before starting conditions were applied. EntF* retention time was between 4.25 and 4.45 min.
# An optimized capillary voltage of 3.00 kV, a cone voltage of 20.00 V, and a source offset of 50.0 V were used. Acquisition was done in the MRM mode. The selected precursor ion for EntF* was m/z 865.7 with two selected product ions at m/z 202.08 (36 eV, b2 fragment) as quantifier and m/z 315.17 (31 eV, b3 fragment) as qualifier.
# [3] = Colon, Time 0, initial concentration EntF 31.82 µM
# [4] = Colon, Time 1, initial concentration EntF 31.82 µM
# [5] = Colon, Time 5, initial concentration EntF 31.82 µM
# [6] = Colon, Time 10, initial concentration EntF 31.82 µM
# [7] = Colon, Time 30, initial concentration EntF 31.82 µM
# [8] = Colon, Time 60, initial concentration EntF 31.82 µM
# [9] = Colon, Time 120, initial concentration EntF 31.82 µM
# [10] = Colon, Time 180, initial concentration EntF 31.82 µM
structure (smiles),measurement,setting,value
"CC(C)C[C@@H]1NC(=O)[C@H](CO)NC(=O)[C@H](Cc2ccccc2)NC(=O)[C@H](C(C)C)NC(=O)[C@@H](NC(=O)[C@H](CCC(=O)O)NC(=O)[C@@H](NC(=O)[C@H](CC(C)C)NC(=O)[C@H](CC(N)=O)NC(=O)[C@@H](N)CO)C(C)C)CSSC[C@@H](C(=O)N[C@@H](CC(N)=O)C(=O)O)NC(=O)[C@H](CCCCN)NC(=O)[C@H](CCCCN)NC(=O)[C@H](Cc2ccccc2)NC1=O (single isomer, unassigned) [EntF*]",effect on E-cadherin expression in HT-29 cells,"[1]; 1 μM EntF* or CXCL12, 24 h, n = 12",statistically significant reduction
same,"Relative E-cadherin expression, average","[1]; HT-29 cells, average of n = 12",73.7
same,Stability of EntF* in Colon tissue,[2]; Colon tissue,EntF* is stable in Colon tissue
same,EntF* Conc,[2]; [3],0.00 µM
same,"EntF* without metabolisation, Conc",[2]; [3],0.00 µM
same,EntF*/EntF %,[2]; [3],0.00%
same,EntF* Conc,[2]; [4],0.0286 µM
same,EntF*/EntF %,[2]; [4],0.09%
same,EntF* Conc,[2]; [5],0.20 µM
same,EntF*/EntF %,[2]; [5],0.62%
same,EntF* Conc,[2]; [6],0.50 µM
same,EntF*/EntF %,[2]; [6],1.56%
same,EntF* Conc,[2]; [7],0.94 µM
same,EntF*/EntF %,[2]; [7],2.94%
same,EntF* Conc,[2]; [8],2.03 µM
same,EntF*/EntF %,[2]; [8],6.39%
same,EntF* Conc,[2]; [9],3.15 µM
same,EntF*/EntF %,[2]; [9],9.89%
same,EntF* Conc,[2]; [10],5.17 µM
same,EntF*/EntF %,[2]; [10],16.25%
same,formation rate of EntF* (from EntF) in colonic tissues,"[2]; mouse colon tissue homogenate (0.6 mg/mL protein) 500 μL + 400 μL Krebs-Henseleit buffer pH 7.4 + 100 μL 1 mg/mL EntF, 37 °C, aliquots 0-180 min, LC1-MS1, mean ± SEM, n = 7",0.11 ± 0.01 % min^−1
same,"Formation rate, Colon tissue, Average","[2]; mouse colon tissue homogenate, Krebs-Henseleit buffer pH 7.4, 37 °C, LC1-MS1, average of X1-X7",0.11 %*min-1
same,"Formation rate, Colon tissue","[2]; mouse colon tissue homogenate, Krebs-Henseleit buffer pH 7.4, 37 °C, LC1-MS1, replicate X1",0.0898 %*min-1
same,"Formation rate, Colon tissue","[2]; mouse colon tissue homogenate, Krebs-Henseleit buffer pH 7.4, 37 °C, LC1-MS1, replicate X2",0.1249 %*min-1
same,"Formation rate, Colon tissue","[2]; mouse colon tissue homogenate, Krebs-Henseleit buffer pH 7.4, 37 °C, LC1-MS1, replicate X3",0.1563 %*min-1
same,"Formation rate, Colon tissue","[2]; mouse colon tissue homogenate, Krebs-Henseleit buffer pH 7.4, 37 °C, LC1-MS1, replicate X4",0.0981 %*min-1
same,"Formation rate, Colon tissue","[2]; mouse colon tissue homogenate, Krebs-Henseleit buffer pH 7.4, 37 °C, LC1-MS1, replicate X5",0.1065 %*min-1
same,"Formation rate, Colon tissue","[2]; mouse colon tissue homogenate, Krebs-Henseleit buffer pH 7.4, 37 °C, LC1-MS1, replicate X6",0.0824 %*min-1
same,"Formation rate, Colon tissue","[2]; mouse colon tissue homogenate, Krebs-Henseleit buffer pH 7.4, 37 °C, LC1-MS1, replicate X7",0.0903 %*min-1
